# Reference: US20250144067A1, “PERSONALIZED STARVATION THERAPY FOR CANCER” (Faeth Therapeutics, Inc., priority 2021, published 2025)
# Counter-ions that a name gives are not always drawn.
# What was measured:
# [1] = test system: NCI-H292 lung cancer cells; assay: FDA drug screening, complete media vs cholesterol-free media with simvastatin (TABLE 2); format: cell-based, human; conditions: for Cholesterol-free media + simvastatin (0.04 μM) / Complete Media: NCI-H292 cells
# [2] = test system: NCI-H292 lung cancer cells; assay: FDA drug screening, complete media vs cholesterol-free media without statin (TABLE 1); format: cell-based, human
# [3] = FDA library drug in cholesterol-free media with simvastatin 0.04 μM
# [4] = FDA library drug in complete media
# [5] = complete media vs cholesterol-free media + simvastatin (0.04 μM), >0 enhanced anti-cancer activity, about 0 neutral, <0 antagonist
# [6] = Complete minus Cholesterol-free, >0 enhanced anti-cancer activity, about 0 neutral, <0 antagonist
# [7] = NCI-H292 cells, cholesterol-free media without statin
# [8] = cholesterol-free media with simvastatin 0.04 μM, FDA drug library screen (TABLE 2)
# [9] = complete media, FDA drug library screen (TABLE 2)
# [10] = complete media minus cholesterol-free media + simvastatin (0.04 μM), >0 enhanced anti-cancer activity, about 0 neutral, <0 antagonist
# [11] = FDA drug library screen, cholesterol-free media with simvastatin 0.04 μM
# [12] = FDA drug library screen, complete media
# [13] = complete media minus cholesterol-free media + simvastatin, >0 enhanced anti-cancer activity, about 0 neutral, <0 antagonist
# [14] = NCI-H292 cells, cholesterol-free media without statin, FDA drug library screen
# [15] = NCI-H292 cells, complete media, FDA drug library screen
# [16] = complete vs cholesterol-free media, >0 enhanced anti-cancer activity, about 0 neutral, <0 antagonist
# [17] = Complete minus Cholesterol-free, greater than 0 enhanced anti-cancer activity, about 0 neutral, below 0 antagonist
# [18] = NCI-H292 cells, FDA drug library screen, cholesterol-free media without statin
# [19] = NCI-H292 cells, FDA drug library screen, complete media
# [20] = cholesterol-free media with simvastatin 0.04 μM, cell growth value in FDA drug screen
# [21] = complete vs cholesterol-free media, greater than 0 enhanced anti-cancer activity, about 0 neutral, below 0 antagonists
# [22] = complete media, cell growth value in FDA drug screen
# [23] = drug in cholesterol-free media with simvastatin 0.04 μM
# [24] = Complete minus Cholesterol-free, greater than 0 enhanced anti-cancer activity, about 0 neutral, below 0 antagonists
# [25] = NCI-H292 cells in cholesterol-free media without statin
# [26] = NCI-H292 cells in complete media
smiles,measurement,setting,value
CC(=O)O[C@]1(C(C)=O)CC[C@H]2[C@@H]3C=C(C)C4=CC(=O)CC[C@]4(C)[C@H]3CC[C@@]21C [Megestrol acetate],Cholesterol-free media + simvastatin (0.04 μM),[1]; [3],1.252
same,Complete Media,[1]; [4],0.9647
same,Difference,[1]; [5],−0.29
same,Difference,[2]; [6],−0.26
same,Cholesterol-free,[2]; [7],1.189
same,Complete,"[2]; NCI-H292 cells, complete media",0.9289
CNC[C@H](O)[C@@H](O)[C@H](O)[C@H](O)CO [Meglumine],Cholesterol-free media + simvastatin (0.04 μM),[1]; [8],1.358
same,Complete Media,[1]; [9],1.305
same,Difference,[1]; [10],−0.05
same,Difference,[2]; [6],−0.26
same,Cholesterol-free,[2]; [7],1.228
same,Complete,"[2]; NCI-H292 cells, complete media",0.9693
CN1C(=O)/C(=C2/C(=O)Nc3ccccc32)c2ccccc21 [Meisoindigo],Cholesterol-free media + simvastatin (0.04 μM),[1]; [11],0.9145
same,Complete Media,[1]; [12],1.461
same,Difference,[1]; [13],0.55
same,Cholesterol-free,[2]; [14],0.8169
same,Complete,[2]; [15],1.238
same,Difference,[2]; [16],0.42
COc1ccc2[nH]cc(CCNC(C)=O)c2c1 [Melatonin],Cholesterol-free media + simvastatin (0.04 μM),[1]; [11],1.501
same,Complete Media,[1]; [12],1.753
same,Difference,[1]; [13],0.25
same,Difference,[2]; [6],0.05
same,Cholesterol-free,[2]; [14],0.9489
same,Complete,[2]; [15],0.9969
CN(C)CCC=C1c2ccccc2C(C)(C)c2ccccc21 [Melitracen (hydrochloride)],Cholesterol-free media + simvastatin (0.04 μM),[1]; [11],1.24
same,Complete Media,[1]; [12],1.495
same,Difference,[1]; [13],0.26
same,Difference,[2]; [17],−0.10
same,Cholesterol-free,[2]; [18],1.283
same,Complete,[2]; [19],1.187
Cc1cnc(NC(=O)C2=C(O)c3ccccc3S(=O)(=O)N2C)s1 [Meloxicam],Cholesterol-free media + simvastatin (0.04 μM),[1]; [20],1.111
same,Difference,[1]; [13],0.12
same,Complete,"[2]; NCI-H292 cells, complete media",0.7862
same,Difference,[2]; [21],−0.39
CC12CC3CC(C)(C1)CC(N)(C3)C2 [Memantine (hydrochloride)],Cholesterol-free media + simvastatin (0.04 μM),[1]; [20],0.8007
same,Complete Media,[1]; [22],0.853
same,Difference,[1]; [13],0.05
same,Difference,[2]; [17],−0.14
same,Cholesterol-free,[2]; [18],0.8008
same,Complete,[2]; [19],0.656
CC1(S(=O)(=O)[O-])CC(=O)c2ccccc2C1=O.[Na+] (stereo not drawn) [Menadione bisulfite (sodium)],Cholesterol-free media + simvastatin (0.04 μM),[1]; [23],0.991
same,Complete Media,[1]; drug in complete media,0.8295
same,Difference,[1]; [5],−0.16
same,Difference,[2]; [6],0.03
same,Cholesterol-free,[2]; [14],1.466
same,Complete,[2]; [15],1.492
CC1=CC(=O)c2ccccc2C1=O [Menadione],Cholesterol-free media + simvastatin (0.04 μM),[1]; [8],1.102
same,Complete Media,[1]; [9],1.055
same,Difference,[1]; [10],−0.05
same,Cholesterol-free,[2]; [14],0.7683
same,Complete,[2]; [15],1.342
same,Difference,[2]; [16],0.57
CC(C)=CCC/C(C)=C/CC/C(C)=C/CC/C(C)=C/CC1=C(C)C(=O)c2ccccc2C1=O [Menaquinone-4],Cholesterol-free media + simvastatin (0.04 μM),[1]; [3],1.094
same,Complete Media,[1]; [4],0.773
same,Difference,[1]; [5],−0.32
same,Cholesterol-free,[2]; [7],1.129
same,Complete,"[2]; NCI-H292 cells, complete media",0.777
same,Difference,[2]; [21],−0.35
CC1CCC(C(C)C)C(O)C1 (stereo not drawn) [Menthol],Cholesterol-free media + simvastatin (0.04 μM),[1]; [23],1.031
same,Complete Media,[1]; drug in complete media,0.8642
same,Difference,[1]; [5],−0.17
same,Cholesterol-free,[2]; [14],0.9443
same,Complete,[2]; [15],1.129
same,Difference,[2]; [16],0.19
Cc1ccccc1OCC(O)CO (stereo not drawn) [Mephenesin],Cholesterol-free media + simvastatin (0.04 μM),[1]; [11],1.225
same,Complete Media,[1]; [12],1.535
same,Difference,[1]; [13],0.31
same,Cholesterol-free,[2]; [14],0.8638
same,Complete,[2]; [15],1.459
same,Difference,[2]; [16],0.60
CCC1(c2ccccc2)NC(=O)N(C)C1=O (stereo not drawn) [Mephenytoin],Cholesterol-free media + simvastatin (0.04 μM),[1]; [3],1.274
same,Complete Media,[1]; [4],1.003
same,Difference,[1]; [5],−0.27
same,Difference,[2]; [24],−0.62
same,Cholesterol-free,[2]; [25],1.604
same,Complete,[2]; [26],0.9878
Cc1cccc(C)c1NC(=O)C1CCCCN1C (stereo not drawn) [Mepivacaine (hydrochloride)],Cholesterol-free media + simvastatin (0.04 μM),[1]; [11],1.253
same,Complete Media,[1]; [12],1.396
same,Difference,[1]; [13],0.14
same,Difference,[2]; [24],−0.61
same,Cholesterol-free,[2]; [25],1.413
same,Complete,[2]; [26],0.805
Cc1cccc(C)c1NC(=O)C1CCCCN1C (stereo not drawn) [Mepivacaine],Cholesterol-free media + simvastatin (0.04 μM),[1]; [3],1.558
same,Complete Media,[1]; [4],0.984
same,Difference,[1]; [5],−0.57
same,Difference,[2]; [17],−0.09
same,Cholesterol-free,[2]; [18],1.247
same,Complete,[2]; [19],1.156
C[C@H]1C[C@H]2[C@@H]3CCC4=CC(=O)C=C[C@]4(C)[C@H]3C(=O)C[C@]2(C)[C@@]1(O)C(=O)CO [Meprednisone],Cholesterol-free media + simvastatin (0.04 μM),[1]; [23],1.224
same,Complete Media,[1]; drug in complete media,0.9766
same,Difference,[1]; [5],−0.25
same,Cholesterol-free,[2]; [14],0.7649
same,Complete,[2]; [15],1.522
same,Difference,[2]; [16],0.76
COc1ccc(CN(CCN(C)C)c2ccccn2)cc1 [Mepyramine maleate],Cholesterol-free media + simvastatin (0.04 μM),[1]; [3],1.226
same,Complete Media,[1]; [4],0.8399
same,Difference,[1]; [5],−0.39
same,Difference,[2]; [17],−0.17
same,Cholesterol-free,[2]; [18],1.527
same,Complete,[2]; [19],1.356
COc1ccc(O)cc1 [Mequinol],Cholesterol-free media + simvastatin (0.04 μM),[1]; [3],1.22
same,Complete Media,[1]; [4],0.8263
same,Difference,[1]; [5],−0.39
same,Difference,[2]; [6],−0.26
same,Cholesterol-free,[2]; [7],0.8829
same,Complete,"[2]; NCI-H292 cells, complete media",0.6277
c1ccc2c(c1)Sc1ccccc1N2CC1CN2CCC1CC2 (stereo not drawn) [Mequitazine],Cholesterol-free media + simvastatin (0.04 μM),[1]; [20],0.8559
same,Complete Media,[1]; [22],0.9842
same,Difference,[1]; [13],0.13
same,Cholesterol-free,[2]; [7],1.704
same,Complete,"[2]; NCI-H292 cells, complete media",1.338
same,Difference,[2]; [21],−0.37
C[C@@H](O)[C@H]1C(=O)N2C(C(=O)O)=C(S[C@@H]3CN[C@H](C(=O)N(C)C)C3)[C@H](C)[C@H]12 [Meropenem (trihydrate)],Cholesterol-free media + simvastatin (0.04 μM),[1]; [8],1.099
same,Complete Media,[1]; [9],1.05
same,Difference,[1]; [10],−0.05
same,Cholesterol-free,[2]; [14],1.169
same,Complete,[2]; [15],1.522
same,Difference,[2]; [16],0.35
O=S(=O)(O)CCS [Mesna],Cholesterol-free media + simvastatin (0.04 μM),[1]; [11],1.227
same,Complete Media,[1]; [12],1.122
same,Difference,[1]; [5],−0.10
same,Difference,[2]; [6],−0.29
same,Cholesterol-free,[2]; [7],1.145
same,Complete,"[2]; NCI-H292 cells, complete media",0.8536
C#C[C@]1(O)CC[C@H]2[C@@H]3CCc4cc(OC)ccc4[C@H]3CC[C@@]21C [Mestranol],Cholesterol-free media + simvastatin (0.04 μM),[1]; [3],1.197
same,Complete Media,[1]; [4],0.9303
same,Difference,[1]; [5],−0.27
same,Difference,[2]; [6],−0.06
same,Cholesterol-free,[2]; [14],0.9912
same,Complete,[2]; [15],0.9277
Cc1ncc(CO)c(CO)c1O.O=C1CC[C@@H](C(=O)O)N1 [Metadoxine],Cholesterol-free media + simvastatin (0.04 μM),[1]; [11],1.163
same,Complete Media,[1]; [12],1.057
same,Difference,"[1]; complete media vs cholesterol-free media + simvastatin (0.04 μM), […]",−0.11
same,Difference,"[2]; Complete minus Cholesterol-free, […]",−0.12
same,Cholesterol-free,[2]; [18],1.129
same,Complete,[2]; [19],1.01
Cc1cc(C)cc(OCC2CNC(=O)O2)c1 (stereo not drawn) [Metaxalone],Cholesterol-free media + simvastatin (0.04 μM),[1]; [3],1.3
same,Complete Media,[1]; [4],1.014
same,Difference,[1]; [5],−0.29
same,Difference,[2]; [24],−0.49
same,Cholesterol-free,[2]; [25],1.567
same,Complete,[2]; [26],1.078
CN1C[C@H](CNC(=O)OCc2ccccc2)C[C@@H]2c3cccc4c3c(cn4C)C[C@H]21 [Metergoline],Cholesterol-free media + simvastatin (0.04 μM),[1]; [20],0.7892
same,Complete Media,[1]; [22],0.8668
same,Difference,[1]; [13],0.08
same,Cholesterol-free,[2]; [7],1.165
same,Complete,"[2]; NCI-H292 cells, complete media",0.7326
same,Difference,[2]; [21],−0.43
CN(C)C(=N)N=C(N)N [Metformin (hydrochloride)],Cholesterol-free media + simvastatin (0.04 μM),[1]; [20],0.8358
same,Complete Media,[1]; [22],0.8942
same,Difference,[1]; [13],0.06
same,Cholesterol-free,[2]; [14],0.9765
same,Complete,[2]; [15],1.069
same,Difference,[2]; [16],0.09
CN(C)C(=N)N=C(N)N [Metformin],Cholesterol-free media + simvastatin (0.04 μM),[1]; [11],1.921
same,Difference,[1]; [10],−0.91
same,Difference,[2]; [24],−0.64
same,Cholesterol-free,[2]; [25],1.603
same,Complete,[2]; [26],0.9656
CC(=O)OC(C)C[N+](C)(C)C.[Cl-] (stereo not drawn) [Methacholine (chloride)],Cholesterol-free media + simvastatin (0.04 μM),[1]; [8],1.245
same,Complete Media,[1]; [9],1.195
same,Difference,[1]; [10],−0.05
same,Difference,[2]; [17],−0.15
same,Cholesterol-free,[2]; [18],1.05
same,Complete,[2]; [19],0.8971
C=C1c2cccc(O)c2C(=O)C2=C(O)[C@]3(O)C(=O)C(C(N)=O)=C(O)[C@@H](N(C)C)[C@@H]3[C@@H](O)[C@H]12 [Methacycline (hydrochloride)],Cholesterol-free media + simvastatin (0.04 μM),[1]; [3],1.315
same,Complete Media,[1]; [4],0.995
same,Difference,[1]; [5],−0.32
same,Difference,[2]; [24],−0.57
same,Cholesterol-free,[2]; [25],1.479
same,Complete,[2]; [26],0.9047
CC(=O)/N=c1/sc(S(N)(=O)=O)nn1C [Methazolamide],Cholesterol-free media + simvastatin (0.04 μM),[1]; [23],1.441
same,Complete Media,[1]; drug in complete media,1.241
same,Difference,[1]; [5],−0.20
same,Difference,[2]; [24],−0.57
same,Cholesterol-free,[2]; [25],1.478
same,Complete,[2]; [26],0.9069
